Here are results for 2 substances from article PMC8797470, “Disruption of the pentraxin 3/CD44 interaction as an efficient therapy for triple‐negative breast cancers” (Clinical and Translational Medicine, 2022).

One assay has as its system MDA-MB-231 cells. The assay is described as follows: Sphere formation assay. The class given is cell-based, human. As to conditions: MDA-MB-231 cells, with PTX3 treatment. How it is done: Note that 5 × 10^3 MDA‐MB‐231 cells were seeded in ultralow attachment plates (Corning) per well. Then, cultured in conditional medium containing the treatment of TGF‐β1, PTX3, PTX3NA, RI37, GI40, IgG1κ, PTX3 Ab‐10 or PTX3 Ab‐49 and the DMEM/F12 (Gibco) added with B27 (Invitrogen), 10 ng/ml bFGF (Peprotech) and 20 ng/ml EGF (Abcam). Number of spheres was calculated by microscope after 2 weeks.

The subject of assay [1] is mCherry fluorescent-expressing MDA-MB-231 cells. The assay is described as follows: Orthotopic xenograft of mCherry MDA-MB-231 cells in NOD-SCID mice. It is filed as in vivo, mouse. Particulars: 40 mg/kg peptide every day, intraperitoneal. The text has this: (§1) For the animal model, MB‐Luc2 cells were mixed with human BCAFs xenografts: 1 × 10^5 MB‐Luc2 were mixed with either 1 × 10^5 BCAFs carrying a control knockdown vector (shCtl‐BCAFs), or 1 × 10^5 BCAFs carrying a CEBPD knockdown vector (shCD‐BCAFs), or 1 × 10^5 BCAFs carrying a PTX3 knockdown vector (shP‐BCAFs). The cell mixtures were inoculated into the mammary fat pads of NOD‐SCID mice. In peptide treatment experiments, NOD‐SCID mice were orthotopically inoculated with 1 × 10^6 mCherry fluorescent‐expressing MDA‐MB‐231 cells into the mammary fat pad. Similarly, 5 × 10^5 mCherry fluorescent‐expressing 4T1 cells were orthotopically inoculated into BALB/c mice in the mammary fat pad. Once tumours reached to the mean of 50 mm^3, the mice were administered 40 mg/kg of peptides RI37, GI40, P2rdAD9 or P12rdGR9 every day by intraperitoneal injection. For paclitaxel treatment, 30 mg/kg of paclitaxel was administered to the experimental mice once a week. […] The images of in vivo bioluminescence and metastasis quantification of the lung and brain were analysed by a Xenogen IVISR Spectrum Noninvasive Quantitative Molecular Imaging System. […] After that, tumour volume was mathematically determined by using the standard formula: […], where l represents the length and w represents the width of the tumour. […] After, the number of nodules on the lung surface was measured. […]

The next assay deals with T1, PTX3/CD44 interaction (Homo sapiens, UniProt P16070).
T1 construct: purchased Sino Biological Inc. (CD44) 12211-H08H
T1 sequence (P16070 21-220 limits assumed): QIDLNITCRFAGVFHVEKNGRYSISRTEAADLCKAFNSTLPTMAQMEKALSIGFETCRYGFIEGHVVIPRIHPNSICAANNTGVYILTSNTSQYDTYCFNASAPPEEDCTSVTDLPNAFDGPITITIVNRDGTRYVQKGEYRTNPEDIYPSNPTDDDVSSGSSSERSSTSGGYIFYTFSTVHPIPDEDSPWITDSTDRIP
Kind of assay: Competitive binding ELISA of HRP-conjugated PTX3 to immobilised CD44. Particulars: biotinylated peptide 2 h, then 5 μg/ml HRP-conjugated PTX3 1 h at RT. How it is done: Plate wells (9018; Corning Costar) were coated with 10 μg/ml of CD44 (12211‐H08H; Sino Biological Inc.) in PBS (pH 7.2) and then blocking for 1 h with the blocking buffer including 3% milk in PBS. For the stability binding experiments, the PTX3‐devired biotinylated peptides were pre‐incubated in serum for 1, 2, 4 or 6 h. For the binding experiments, the horseradish peroxidase (HRP)‐conjugated recombinant PTX3, PTX3/N, PTX3/C and PTX3NA or PTX3‐devired biotinylated peptides AD9, GR9, P2rdAD9 and P12rdGR9 (32310; LEADGENE) was responded in the well for 2 h. For the peptide of competition experiments, the PTX3‐devired biotinylated peptides RI37 and GI40 were diluted at the indicated concentration in PBS. After 2 h, PBS washed three times and then incubated with 5 μg/ml HRP‐conjugated PTX3 in PBS for 1 h at room temperature (RT). For the antibody competition experiments, Ab‐10 and Ab‐49 were incubated with 5 μg/ml HRP‐conjugated PTX3 in PBS for 2 h at RT. After incubation, the mixtures was responded in the well for 1 h at RT and then PBS washed three times, tetramethyl benzidine (TMB) was used to detect the bound HRP conjugate. After 15 min, the peroxidase reaction was stopped by adding 0.1 M H2SO4. Next, ELISA plate reader was used to detect the optical densities at 450 nm.
Background: In an ELISA, binding on a coated surface is turned into a signal by an enzyme label.

Assay [2] concerns AKT, NF-κB and ERK1/2 activity in MDA-MB-231 cells. Kind of assay: Western blot of PTX3-induced signalling. As to conditions: with PTX3 treatment. It is filed as cell-based, human. The text has this: Experimental cells were lysed with radioimmunoprecipitation assay buffer (RIPA) buffer. Specific antibodies including PTX3 (ab90806; Abcam), CEBPD (sc‐636; Santa Cruz Biotechnology), CD44 (GTX83114; GeneTex), α‐tubulin (T6199; Sigma), P84 (GTX70220; GeneTex), RAC1 (GTX100761; GeneTex), CDC42 (GTX100904; GeneTex), AKT (GTX121937; GeneTex), Phospho‐AKT (Ser473) (GTX128414; GeneTex), Phospho‐NF‐κB p65 (Ser536) (#93H1; Cell Signaling), RhoA (ab68826; Abcam), NF‐κB p65 (#3033; Cell Signaling), Phospho‐p38 MAPK (Thr180/Tyr182) (#9211; Cell Signaling), PTEN (ab32199; Abcam), p38 MAPK (#9212; Cell Signaling), Phospho‐SAPK/JNK (Thr183/Tyr185) (#4668; Cell Signaling), Phospho‐p70 S6 Kinase (Thr389) (MABS82; Millipore), Phospho‐PAK1 (Ser199/Ser204) (09‐258; Millipore), SAPK/JNK (#9252; Cell Signaling), Phospho‐p44/42 MAPK (ERK1/2) (Thr202/Tyr204) (#4377; Cell Signaling) and p44/42 MAPK (ERK1/2) (#9102; Cell Signaling) were used for Western blotting.
A general note: A western blot detects proteins with antibodies after separation by electrophoresis.

Assay [3] deals with mCherry fluorescent-expressing 4T1 cells. The assay is described as follows: Orthotopic allograft of mCherry 4T1 cells in BALB/c mice. Particulars: 40 mg/kg peptide every day, intraperitoneal. The class given is in vivo, mouse.
Source text: as §1

Ends that are not written are not given here.

On to “RI37: peptide, PTX3 amino acids 200–236 (RPMRLESFSACIWVKATDVLNKTILFSYGTKRNPYEI; also: biotin, position not given here)”, for which, in the assay on MDA-MB-231 cells, the “PTX3-induced sphere-forming ability (stemness)” value is reported as “suppressed”. Besides, the “tumour growth and metastasis” value in assay [1] and in assay [3] was “suppressed” in each case. For the same substance, in the assay with PTX3/CD44 interaction, the “binding of PTX3 and CD44 in competition with peptide” value is “attenuated”. Moreover, the “PTX3-induced AKT, NF-κB and ERK1/2 activity (signalling pathways)” value in assay [2] is given as “suppressed”.

As for “GI40: peptide, PTX3 amino acids 320–359 (GGGFDETLAFSGRLTGFNIWDSVLSNEEIRETGGAESCHI; also: biotin, position not given here)”, the “PTX3-induced sphere-forming ability (stemness)” value with MDA-MB-231 cells was “suppressed”. In addition, the “tumour growth and metastasis” value in assay [1] and in assay [3] was “suppressed” each time. The “binding of PTX3 and CD44 in competition with peptide” value in the assay with PTX3/CD44 interaction is on record as “attenuated”. Also, the “PTX3-induced AKT, NF-κB and ERK1/2 activity (signalling pathways)” value in assay [2] is on record as “suppressed”.
